Tests used:
Type in all cases: in vivo
[1] = test system: lambsquarters (Chenopodium album); assay: General postemergence herbicidal activity, lambsquarters; conditions: post-emergence, 336 h, postemergence, after 14 d, 0 = no injury, 100 = complete kill, read-out: CHEAL % Visual Injury; for pest or weed control at 70 g/ha: 70 g ai/ha; for pest or weed control at 140 g/ha: 140 g ai/ha
How it was run: (§1)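 Greenhouse plants at first to second true leaf stage sprayed overhead at 187 L/ha in acetone/DMSO with crop oil concentrate and surfactant, at a high rate plus ½× to 1/16× serial dilutions. Injury rated visually after 14 d against solvent-blank controls, 0 (none) to 100% (complete kill).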

[2] = test system: lambsquarters (Chenopodium album); assay: Postemergence herbicidal activity in oilseed rape (canola), lambsquarters; design: unit: g ai/ha; conditions: oilseed rape (canola) test, visual rating after 21 d, probit analysis, dose to kill or control 80 percent
Experimental: (§2) Seeds of oilseed rape (canola) and the desired weed species were planted in Sun Gro MetroMix® 360 planting mixture, which typically has a pH of 6.0 to 6.8 and an organic matter content of about 30 percent, in plastic pots with a surface area of 95 cm^2. When required to ensure good germination and healthy plants, a fungicide treatment and/or other chemical or physical treatment was applied. The plants were grown for 15-28 d in a greenhouse with an approximate 15-h photoperiod which was maintained at about 23-29° C. during the day and 22-28° C. during the night. Nutrients and water were added on a regular basis and supplemental lighting was provided with overhead metal halide 1000-Watt lamps as necessary. The oilseed rape (canola) plants were utilized for testing when they reached the third or fourth true leaf stage. The weed species were utilized at the fourth true leaf stage.
(§3) A weighed amount, determined by the highest rate to be tested, of each test compound was dissolved in 4 mL of a 97:3 v/v mixture of acetone and DMSO to obtain concentrated stock solutions. […] The concentrated stock solutions obtained were diluted with 20 mL of an aqueous mixture containing acetone, water and Agri-Dex crop oil concentrate, in a 16.7:82.1:1.25 v/v ratio to obtain spray solutions containing the highest application rates. Additional application rates were obtained by serial dilution of 12 mL of the high rate solution into a solution containing 2 mL of 97:3 v/v mixture of acetone and DMSO and 10 mL of an aqueous mixture containing acetone, water and Agri-Dex crop oil concentrate, in a 16.7:82.1:1.25 v/v ratio to obtain ½×, ¼×, ⅛× and 1/16× rates of the high rate. Compound requirements are based upon a 12 mL application volume at a rate of 187 L/ha. Formulated compounds were applied to the plant material with an overhead Mandel track sprayer equipped with 8002E nozzles calibrated to deliver 187 L/ha over an application area of 0.503 m^2 at a spray height of 18 inches (43 cm) above the average plant canopy height. Control plants were sprayed in the same manner with the solvent blank.
(§4) The treated plants and control plants were placed in a greenhouse as described above and watered by sub-irrigation to prevent wash-off of the test compounds. After 21 d, the condition of the test plants as compared with that of the untreated plants was determined visually and scored on a scale of 0 to 100 percent where 0 corresponds to no injury and 100 corresponds to complete kill.
(§5) By applying the well-accepted probit analysis as described by J. Berkson in Journal of the American Statistical Society 1953, 48, 565, and by D. Finney in “Probit Analysis” Cambridge University Press (1952), the above data can be used to calculate GR20 and GR80 values, which are defined as growth reduction factors that correspond to the effective dose of herbicide required to kill or control 20 percent or 80 percent, respectively, of a target plant.

[3] = test system: wild buckwheat (Polygonum convululus); assay: General postemergence herbicidal activity, wild buckwheat; conditions: post-emergence, 336 h, postemergence, after 14 d, 0 = no injury, 100 = complete kill, read-out: POLCO % Visual Injury; for pest or weed control at 70 g/ha: 70 g ai/ha; for pest or weed control at 140 g/ha: 140 g ai/ha
How it was run: as §1

[4] = test system: winter oilseed rape (canola) (Brassica napus); assay: Postemergence herbicidal activity in oilseed rape (canola), crop; design: unit not given here; conditions: visual rating after 21 d, probit analysis, dose to kill or control 20 percent
Experimental: as §2, §3, §4, §5

[5] = test system: velvetleaf (Abutilon theophrasti); assay: General postemergence herbicidal activity, velvetleaf; conditions: post-emergence, 336 h, postemergence, after 14 d, 0 = no injury, 100 = complete kill, read-out: ABUTH % Visual Injury; for pest or weed control at 70 g/ha: 70 g ai/ha; for pest or weed control at 140 g/ha: 140 g ai/ha
How it was run: as §1

[6] = test system: purple deadnettle (Lamium purpureum); assay: Postemergence herbicidal activity in oilseed rape (canola), purple deadnettle; design: unit not given here; conditions: oilseed rape (canola) test, visual rating after 21 d, probit analysis, dose to kill or control 80 percent
Experimental: as §2, §3, §4, §5

corn (Zea mays) = assay: General postemergence herbicidal activity, corn; conditions: post-emergence, 336 h, postemergence, after 14 d, 0 = no injury, 100 = complete kill, read-out: ZEAMX % Visual Injury; for plant injury at 70 g/ha: 70 g ai/ha; for plant injury at 140 g/ha: 140 g ai/ha
How it was run: as §1

[7] = test system: lambsquarters (Chenopodium album); assay: Postemergence herbicidal activity in sugar beet, lambsquarters; design: unit not given here; conditions: sugar beet test, visual rating after 21 d, probit analysis, dose to kill or control 80 percent
Experimental: as §2, with “sugar beet” for “oilseed rape (canola)”
as §3, §4, §5

[8] = test system: sugar beet (Beta vulgaris); assay: Postemergence herbicidal activity in sugar beet, crop; design: unit not given here; conditions: visual rating after 21 d, probit analysis, dose to kill or control 20 percent
Experimental: as §2, with “sugar beet” for “oilseed rape (canola)”
as §3, §4, §5

[9] = test system: purple deadnettle (Lamium purpureum); assay: Postemergence herbicidal activity in sugar beet, purple deadnettle; design: unit not given here; conditions: sugar beet test, visual rating after 21 d, probit analysis, dose to kill or control 80 percent
Experimental: as §2, with “sugar beet” for “oilseed rape (canola)”
as §3
as §4, with “kill. […]” for “kill.”

## C=CCONC(=O)c1nc(-c2ccc(Cl)c(OC)c2F)c(F)c(N)c1Cl [Compound 39, N-(2-Propenyloxy)-4-amino-3-chloro-6-(4-chloro-2-fluoro-3-methoxyphenyl)-5-fluoropicolinamide]
[1]; 17.5 g ai/ha
  pest or weed control at 17.5 g/ha: 100%
[2]
  CHEAL GR80: 49
[3]; 17.5 g ai/ha
  pest or weed control at 17.5 g/ha: 100%
[4]
  BRSNW GR20: >70
[5]; 17.5 g ai/ha
  pest or weed control at 17.5 g/ha: 100%
[6]
  LAMPU GR80: <8.75
Corn (Zea mays); 17.5 g ai/ha
  plant injury at 17.5 g/ha: 45%

## COc1c(Cl)ccc(-c2cc(N)c(Cl)c(C(=O)NOC/C=C/Cl)n2)c1F [Compound 31, (E)-4-Amino-3-chloro-6-(4-chloro-2-fluoro-3-methoxyphenyl)-N-(3-chloro-2-propenyl-oxy)picolinamide]
[1]
  pest or weed control at 70 g/ha: 100%
[3]
  pest or weed control at 70 g/ha: 100%
[7]
  CHEAL GR80: <8.75
[5]
  pest or weed control at 70 g/ha: 100%
[8]
  BEAVA GR20: >140
Corn (Zea mays)
  plant injury at 70 g/ha: 5%

## CCONC(=O)c1nc(-c2ccc(Cl)c(OC)c2F)cc(N)c1Cl [Compound 4, 4-Amino-3-chloro-6-(4-chloro-2-fluoro-3-methoxyphenyl)-N-ethoxypicolinamide]
[1]
  pest or weed control at 140 g/ha: 100%
[2]
  CHEAL GR80: 11
[3]
  pest or weed control at 140 g/ha: 100%
[4]
  BRSNW GR20: >140
[7]
  CHEAL GR80: <8.75
[5]
  pest or weed control at 140 g/ha: 100%
[6]
  LAMPU GR80: <4.38
[9]
  LAMPU GR80: <4.38
[8]
  BEAVA GR20: >140
Corn (Zea mays)
  plant injury at 140 g/ha: 0%

## COc1c(Cl)ccc(-c2nc(C(=O)NOC3CCCCO3)c(Cl)c(N)c2F)c1F (stereo not drawn) [Compound 48, 4-Amino-3-chloro-6-(4-chloro-2-fluoro-3-methoxyphenyl)-5-fluoro-N-(tetrahydro-2H-pyran-2-yloxy)picolinamide]
[1]
  pest or weed control at 140 g/ha: 100%
[2]
  CHEAL GR80: 18
[3]
  pest or weed control at 140 g/ha: 100%
[4]
  BRSNW GR20: >70
[5]
  pest or weed control at 140 g/ha: 100%
[6]
  LAMPU GR80: <4.38
Corn (Zea mays)
  plant injury at 140 g/ha: 0%

## COc1c(Cl)ccc(-c2cc(N)c(Cl)c(C(=O)NOCc3cnc(Cl)s3)n2)c1F [Compound 41, 4-Amino-3-chloro-6-(4-chloro-2-fluoro-3-methoxyphenyl)-N-((2-chlorothiazol-5-yl)-methoxy)picolinamide]
[1]
  pest or weed control at 70 g/ha: 100%
[3]
  pest or weed control at 70 g/ha: 100%
[7]
  CHEAL GR80: 30
[5]
  pest or weed control at 70 g/ha: 100%
[9]
  LAMPU GR80: <4.38
[8]
  BEAVA GR20: 136
Corn (Zea mays)
  plant injury at 70 g/ha: 5%

## COc1c(Cl)ccc(-c2cc(N)c(Cl)c(C(=O)N(C)O)n2)c1F [Compound 24, 4-Amino-3-chloro-6-(4-chloro-2-fluoro-3-methoxyphenyl)-N-hydroxy-N-methylpicolinamide]
[1]
  pest or weed control at 70 g/ha: 95%
[3]
  pest or weed control at 70 g/ha: 80%
[5]
  pest or weed control at 70 g/ha: 90%
Corn (Zea mays)
  plant injury at 70 g/ha: 50%

## C=CCONC(=O)c1nc(-c2ccc(Cl)c(OC)c2F)nc(N)c1OC [Compound 35, N-(2-Propenyloxy)-6-amino-2-(4-chloro-2-fluoro-3-methoxyphenyl)-5-methoxypyrimidine-4-carboxamide]
[1]
  pest or weed control at 140 g/ha: 100%
[3]
  pest or weed control at 140 g/ha: 90%
[5]
  pest or weed control at 140 g/ha: 100%
Corn (Zea mays)
  plant injury at 140 g/ha: 20%

## COc1c(Cl)ccc(-c2cc(N)c(Cl)c(C(=O)NOCC3=CCCCC3)n2)c1F [Compound 44, 4-Amino-3-chloro-6-(4-chloro-2-fluoro-3-methoxyphenyl)-N-(cyclohexenyl-methoxy)picolinamide]
[1]
  pest or weed control at 140 g/ha: 98%
[3]
  pest or weed control at 140 g/ha: 100%
[5]
  pest or weed control at 140 g/ha: 98%
Corn (Zea mays)
  plant injury at 140 g/ha: 5%

## C/C=C/CONC(=O)c1nc(-c2ccc(Cl)c(OC)c2F)cc(N)c1Cl [Compound 30, (E)-4-Amino-N-(2-butenyloxy)-3-chloro-6-(4-chloro-2-fluoro-3-methoxy-phenyl)picolinamide]
[1]
  pest or weed control at 70 g/ha: 100%
[2]
  CHEAL GR80: <8.75
[3]
  pest or weed control at 70 g/ha: 100%
[4]
  BRSNW GR20: >70
[7]
  CHEAL GR80: <8.75
[5]
  pest or weed control at 70 g/ha: 100%
[6]
  LAMPU GR80: <4.38
[9]
  LAMPU GR80: <4.38
[8]
  BEAVA GR20: >140
Corn (Zea mays)
  plant injury at 70 g/ha: 50%

## COc1c(Cl)ccc(-c2cc(N)c(Cl)c(C(=O)NOC3CCCCO3)n2)c1F (stereo not drawn) [Compound 12, 4-amino-3-chloro-6-(4-chloro-2-fluoro-3-methoxyphenyl)-N-(tetrahydro-2H-pyran-2-yloxy)picolinamide]
[1]
  pest or weed control at 70 g/ha: 100%
[3]
  pest or weed control at 70 g/ha: 100%
[5]
  pest or weed control at 70 g/ha: 100%
Corn (Zea mays)
  plant injury at 70 g/ha: 0%
